From PubChem BioAssay (NCI)
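How tested: cells in 96-well plates exposed to compound for 48 hours at five concentrations. Definition used: TGI = concentration required for complete inhibition of growth.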

Tests used:
Assay in all cases: NCI tumour cell line growth inhibition, 48 h
[1] = tested on: SF-539 CNS
[2] = tested on: KM12 colon
[3] = tested on: SK-MEL-2 melanoma
[4] = tested on: CCRF-CEM leukemia
[5] = tested on: OVCAR-3 ovarian
[6] = tested on: NCI-H23 lung
[7] = tested on: MOLT-4 leukemia
[8] = tested on: UACC-62 melanoma
[9] = tested on: HCC-2998 colon
[10] = tested on: RPMI-8226 leukemia
[11] = tested on: SF-268 CNS
[12] = tested on: SN12C renal
[13] = tested on: M19-MEL melanoma
[14] = tested on: HCT-116 colon
[15] = tested on: HT29 colon
[16] = tested on: XF 498 CNS
[17] = tested on: SR leukemia
[18] = tested on: EKVX NSCLC
[19] = tested on: HOP-92 NSCLC
[20] = tested on: SK-MEL-28 melanoma
[21] = tested on: TK-10 renal
[22] = tested on: LXFL 529 NSCLC
[23] = tested on: NCI-H460 lung
[24] = tested on: NCI-H522 lung
[25] = tested on: SNB-78 CNS
[26] = tested on: UO-31 renal
[27] = tested on: UACC-257 melanoma
[28] = tested on: M14 melanoma
[29] = tested on: HOP-62 NSCLC
[30] = tested on: SW-620 colon
[31] = tested on: K-562 leukemia
[32] = tested on: COLO 205 colon
[33] = tested on: DMS 273 small cell lung
[34] = tested on: SNB-19 CNS
[35] = tested on: 786-0 renal
[36] = tested on: DMS 114 small cell lung
[37] = tested on: HOP-18 NSCLC
[38] = tested on: SF-295 CNS
[39] = tested on: MALME-3M melanoma
[40] = tested on: LOX IMVI melanoma
[41] = tested on: NCI-H226 lung
[42] = tested on: U251 CNS
[43] = tested on: HCT-15 colon
[44] = tested on: RXF-631 renal
[45] = tested on: HL-60(TB) leukemia
[46] = tested on: CAKI-1 renal
[47] = tested on: OVCAR-8 ovarian
[48] = tested on: DLD-1 colon
[49] = tested on: KM20L2 colon
[50] = tested on: A498 renal
[51] = tested on: OVCAR-5 ovarian
[52] = tested on: SK-OV-3 ovarian
[53] = tested on: A549 NSCLC
[54] = tested on: IGROV1 ovarian
[55] = tested on: SK-MEL-5 melanoma
[56] = tested on: SNB-75 CNS
[57] = tested on: P388 leukemia
[58] = tested on: MCF7 breast
[59] = tested on: RXF 393 renal
[60] = tested on: P388/ADR leukemia
[61] = tested on: NCI/ADR-RES ovarian
[62] = tested on: SN12K1 renal
[63] = tested on: OVCAR-4 ovarian
[64] = tested on: ACHN renal

For `O=c1nc2cc(-c3ccccc3)[nH]c2nn1-c1c(Cl)cc(Cl)cc1Cl`, the TGI [1] was 33.5 µM, the TGI [2] was 39.2 µM and the TGI [3] was 94 µM. For the same compound, the TGI [4] was 76.2 µM, the TGI [5] was 54.2 µM and the TGI [6] was 50.2 µM. For the same compound, the TGI [7] was 64.5 µM, the TGI [8] was 35.6 µM and the TGI [9] was 32 µM. For the same compound, the TGI [10] was 61.1 µM, the TGI [11] was > 100 µM and the TGI [12] was 83.7 µM. The TGI [13] was 63.2 µM, the TGI [14] was 40.1 µM and the TGI [15] was 88.7 µM. For the same compound, the TGI [16] was 64.1 µM, the TGI [17] was 62.5 µM and the TGI [18] was 74 µM. For the same compound, the TGI [19] was 64 µM, the TGI [20] was > 100 µM and the TGI [21] was 69.4 µM. The TGI [22] was > 100 µM, the TGI [23] was > 100 µM and the TGI [24] was 52.1 µM. For the same compound, the TGI [25] was > 100 µM, the TGI [26] was 47 µM and the TGI [27] was 79.6 µM. For the same compound, the TGI [28] was 59.3 µM, the TGI [29] was 56.5 µM and the TGI [30] was > 100 µM. The TGI [31] was > 100 µM, the TGI [32] was 32.9 µM and the TGI [33] was > 100 µM. For the same compound, the TGI [34] was > 100 µM, the TGI [35] was > 100 µM and the TGI [36] was > 100 µM. For the same compound, the TGI [37] was 44.9 µM, the TGI [38] was 93.2 µM and the TGI [39] was 65.7 µM. The TGI [40] was 50 µM, the TGI [41] was 60.9 µM and the TGI [42] was 34.2 µM. The TGI [43] was > 100 µM, the TGI [44] was > 100 µM and the TGI [45] was 57.1 µM. For the same compound, the TGI [46] was 68.5 µM, the TGI [47] was 95.8 µM and the TGI [48] was > 100 µM. For the same compound, the TGI [49] was 57.5 µM, the TGI [50] was 89.7 µM and the TGI [51] was > 100 µM. For the same compound, the TGI [52] was 92.4 µM, the TGI [53] was 91.7 µM and the TGI [54] was > 100 µM. The TGI [55] was 56.4 µM.

In the case of `CN1OC(=O)N(C)C1c1ccccc1` (stereo unspecified), the TGI [1] is reported as > 100 µM, the TGI [2] is reported as > 100 µM and the TGI [56] is reported as > 100 µM. For the same compound, the TGI [3] was > 100 µM, the TGI [4] was > 100 µM and the TGI [5] was > 100 µM. The TGI [57] was > 100 µM, the TGI [6] was > 100 µM and the TGI [7] was > 100 µM. For the same compound, the TGI [8] was > 100 µM, the TGI [9] was > 100 µM and the TGI [10] was > 100 µM. The TGI [11] was > 100 µM, the TGI [12] was > 100 µM and the TGI [13] was > 100 µM. The TGI [14] was > 100 µM, the TGI [58] was > 100 µM and the TGI [15] was > 100 µM. The TGI [16] was > 100 µM, the TGI [18] was > 100 µM and the TGI [19] was > 100 µM. The TGI [20] was > 100 µM, the TGI [23] was > 100 µM and the TGI [24] was > 100 µM. The TGI [25] was > 100 µM, the TGI [26] was > 100 µM and the TGI [59] was > 100 µM. For the same compound, the TGI [60] was > 100 µM, the TGI [61] was > 100 µM and the TGI [27] was > 100 µM. The TGI [29] was > 100 µM, the TGI [30] was > 100 µM and the TGI [31] was > 100 µM. The TGI [32] was > 100 µM, the TGI [33] was > 100 µM and the TGI [34] was > 100 µM. For the same compound, the TGI [36] was > 100 µM, the TGI [37] was > 100 µM and the TGI [38] was > 100 µM. For the same compound, the TGI [39] was > 100 µM, the TGI [40] was > 100 µM and the TGI [62] was > 100 µM. The TGI [41] was > 100 µM, the TGI [42] was > 100 µM and the TGI [43] was > 100 µM. The TGI [63] was > 100 µM, the TGI [45] was > 100 µM and the TGI [47] was > 100 µM. The TGI [48] was > 100 µM, the TGI [49] was > 100 µM and the TGI [50] was > 100 µM. The TGI [51] was > 100 µM, the TGI [52] was > 100 µM and the TGI [53] was > 100 µM. The TGI [54] was > 100 µM and the TGI [55] was > 100 µM.

`CCC1(OC(C)=O)C(=O)OCc2c1cc1n(c2=O)Cc2cc3ccccc3nc2-1` (stereo unspecified) was tested, and the TGI [1] was 5.23 µM, the TGI [2] was > 100 µM and the TGI [56] was > 44.6 µM. For the same compound, the TGI [3] was > 100 µM, the TGI [4] was 1.93 µM and the TGI [5] was > 100 µM. The TGI [6] was 4.6 µM, the TGI [9] was > 100 µM and the TGI [10] was > 100 µM. The TGI [11] was > 100 µM, the TGI [12] was > 91.9 µM and the TGI [13] was > 100 µM. The TGI [14] was > 37.5 µM, the TGI [15] was > 100 µM and the TGI [16] was > 100 µM. For the same compound, the TGI [17] was 11.9 µM, the TGI [18] was > 100 µM and the TGI [19] was > 100 µM. The TGI [20] was > 100 µM, the TGI [21] was > 100 µM and the TGI [22] was > 100 µM. The TGI [23] was 7.15 µM, the TGI [24] was 15.2 µM and the TGI [25] was > 100 µM. The TGI [26] was 8.19 µM, the TGI [59] was > 22.6 µM and the TGI [27] was > 100 µM. For the same compound, the TGI [28] was > 33 µM, the TGI [29] was 9.81 µM and the TGI [30] was > 100 µM. The TGI [31] was > 100 µM, the TGI [32] was > 100 µM and the TGI [34] was > 100 µM. The TGI [35] was > 31.1 µM, the TGI [36] was 11.9 µM and the TGI [37] was > 100 µM. The TGI [38] was > 100 µM, the TGI [39] was > 100 µM and the TGI [40] was 13.5 µM. For the same compound, the TGI [41] was 4.55 µM, the TGI [42] was 2.64 µM and the TGI [43] was > 100 µM. The TGI [63] was > 100 µM, the TGI [44] was > 100 µM and the TGI [46] was 36 µM. For the same compound, the TGI [47] was > 100 µM, the TGI [48] was > 100 µM and the TGI [49] was > 100 µM. The TGI [50] was 25.5 µM, the TGI [51] was 28.9 µM and the TGI [64] was 12.1 µM. For the same compound, the TGI [52] was > 69.6 µM, the TGI [53] was > 100 µM and the TGI [54] was > 100 µM. It also gave a TGI [55] of 4 µM.
